Test results: publication PMC5218480 (PLoS ONE, 2017)

Test system: MV-4-11 cells
Assay: Gene expression microarray analysis (Affymetrix PrimeView) and GSEA
Assay type: cell-based, human
Set-up: RFU PODN (11730768_x_at) / Fold change /veh PODN (11730768_x_at) / RFU LINC00158 (11744669_a_at) / Fold change /veh LINC00158 (11744669_a_at) / RFU DUSP10 (11751237_a_at) / Fold change /veh DUSP10 (11751237_a_at) / RFU ID3 (11757404_x_at) / Fold change /veh ID3 (11757404_x_at) / RFU PLEKHG5 (11737974_s_at) / Fold change /veh PLEKHG5 (11737974_s_at) / RFU LRRC4B (11730491_at) / Fold change /veh LRRC4B (11730491_at) / RFU GIMAP4 (11747438_a_at) / Fold change /veh GIMAP4 (11747438_a_at) / RFU KRT8 (11758183_x_at) / Fold change /veh KRT8 (11758183_x_at) / RFU CNN1 (11734310_a_at) / Fold change /veh CNN1 (11734310_a_at) / RFU VPS37D (11726825_at) / Fold change /veh VPS37D (11726825_at) / RFU C10orf10 (11716522_x_at) / Fold change /veh C10orf10 (11716522_x_at) / RFU KIR2DL2 /// KIR2DL4 /// KIR2DL5A /// KIR2DL5B /// KIR2DS1 /// KIR2DS2 /// KIR2DS3 /// KIR2DS4 /// KIR3DL3 /// KIR3DL3 /// KIR3DS1 (11738374_at) / Fold change /veh KIR2DL2 /// KIR2DL4 /// KIR2DL5A /// KIR2DL5B /// KIR2DS1 /// KIR2DS2 /// KIR2DS3 /// KIR2DS4 /// KIR3DL3 /// KIR3DL3 /// KIR3DS1 (11738374_at) / RFU C1QL1 (11718748_at) / Fold change /veh C1QL1 (11718748_at) / RFU TMPRSS4 (11747572_a_at) / Fold change /veh TMPRSS4 (11747572_a_at) / RFU HAMP (11756126_x_at) / Fold change /veh HAMP (11756126_x_at) / RFU RNFT2 (11725882_a_at) / Fold change /veh RNFT2 (11725882_a_at) / RFU NR4A2 (11747474_a_at) / Fold change /veh NR4A2 (11747474_a_at) / RFU ABCC12 (11746883_a_at) / Fold change /veh ABCC12 (11746883_a_at) / RFU TMEM136 (11760407_x_at) / Fold change /veh TMEM136 (11760407_x_at) / RFU CLDN22 /// WWC2 (11732394_at) / Fold change /veh CLDN22 /// WWC2 (11732394_at) / RFU HLA-DPB1 (11760878_x_at) / Fold change /veh HLA-DPB1 (11760878_x_at) / RFU SPINT1 (11716480_a_at) / Fold change /veh SPINT1 (11716480_a_at) / RFU GAP43 (11754022_s_at) / Fold change /veh GAP43 (11754022_s_at) / RFU A4GNT (11735810_at) / Fold change /veh A4GNT (11735810_at) / RFU PRB3 (11715151_x_at) / Fold change /veh PRB3 (11715151_x_at) / RFU TUBB4B (11761932_at) / Fold change /veh TUBB4B (11761932_at) / RFU CAPN14 (11732068_a_at) / Fold change /veh CAPN14 (11732068_a_at) / RFU TMCC2 (11721928_a_at) / Fold change /veh TMCC2 (11721928_a_at) / RFU IRGQ (11745062_a_at) / Fold change /veh IRGQ (11745062_a_at) / RFU FAM174B (11720279_a_at) / Fold change /veh FAM174B (11720279_a_at) / RFU TMPRSS4 (11748680_a_at) / Fold change /veh TMPRSS4 (11748680_a_at) / RFU FAM212B (11763350_a_at) / Fold change /veh FAM212B (11763350_a_at) / RFU PLEKHG5 (11743358_a_at) / Fold change /veh PLEKHG5 (11743358_a_at) / RFU ZSCAN30 (11745921_a_at) / Fold change /veh ZSCAN30 (11745921_a_at) / RFU CMKLR1 (11741424_a_at) / Fold change /veh CMKLR1 (11741424_a_at) / RFU LOC101060620 /// MAPK8IP1 (11723275_at) / Fold change /veh LOC101060620 /// MAPK8IP1 (11723275_at) / RFU SPTSSB (11747773_x_at) / Fold change /veh SPTSSB (11747773_x_at) / RFU PRSS12 (11739890_at) / Fold change /veh PRSS12 (11739890_at) / RFU BIN1 (11741810_x_at) / Fold change /veh BIN1 (11741810_x_at) / RFU WNT11 (11732464_a_at) / Fold change /veh WNT11 (11732464_a_at) / RFU C10orf10 (11716521_a_at) / Fold change /veh C10orf10 (11716521_a_at) / RFU C5orf56 (11738089_at) / Fold change /veh C5orf56 (11738089_at) / RFU CYB561 (11721691_x_at) / Fold change /veh CYB561 (11721691_x_at) / RFU ANKRD19P (11752326_a_at) / Fold change /veh ANKRD19P (11752326_a_at) / RFU OR2T12 /// OR2T33 /// OR2T8 (11738714_s_at) / Fold change /veh OR2T12 /// OR2T33 /// OR2T8 (11738714_s_at) / RFU VCAN (11748164_a_at) / Fold change /veh VCAN (11748164_a_at) / RFU JSRP1 (11732532_at) / Fold change /veh JSRP1 (11732532_at) / RFU KRTAP10-11 (11738290_x_at) / Fold change /veh KRTAP10-11 (11738290_x_at) / RFU MYO3A (11730013_a_at) / Fold change /veh MYO3A (11730013_a_at) / RFU EBF3 (11725865_a_at) / Fold change /veh EBF3 (11725865_a_at) / RFU CAMK2N1 (11719241_x_at) / Fold change /veh CAMK2N1 (11719241_x_at) / RFU C5orf56 (11738088_a_at) / Fold change /veh C5orf56 (11738088_a_at) / RFU OLFML3 (11715873_a_at) / Fold change /veh OLFML3 (11715873_a_at) / RFU LOC100653217 /// NTM (11731650_a_at) / Fold change /veh LOC100653217 /// NTM (11731650_a_at) / RFU MAPK11 (11762145_a_at) / Fold change /veh MAPK11 (11762145_a_at) / RFU FIZ1 (11724087_x_at) / Fold change /veh FIZ1 (11724087_x_at) / RFU OASL (11726364_x_at) / Fold change /veh OASL (11726364_x_at) / RFU SOX15 (11748057_x_at) / Fold change /veh SOX15 (11748057_x_at) / RFU CD79A (11719716_a_at) / Fold change /veh CD79A (11719716_a_at) / RFU HIST1H1D (11736915_at) / Fold change /veh HIST1H1D (11736915_at) / RFU CASKIN2 (11723855_a_at) / Fold change /veh CASKIN2 (11723855_a_at) / RFU LOC730098 (11760151_x_at) / Fold change /veh LOC730098 (11760151_x_at) / RFU OR4N2 (11742367_at) / Fold change /veh OR4N2 (11742367_at) / RFU PRRT2 (11749266_a_at) / Fold change /veh PRRT2 (11749266_a_at) / RFU SNX32 (11753110_a_at) / Fold change /veh SNX32 (11753110_a_at) / RFU CDHR5 (11726645_a_at) / Fold change /veh CDHR5 (11726645_a_at) / RFU RCAN1 (11760418_a_at) / Fold change /veh RCAN1 (11760418_a_at) / RFU FAM167A (11723789_a_at) / Fold change /veh FAM167A (11723789_a_at) / RFU FAM26E (11764081_at) / Fold change /veh FAM26E (11764081_at) / RFU ISYNA1 (11749810_s_at) / Fold change /veh ISYNA1 (11749810_s_at) / RFU ACY1 (11761880_at) / Fold change /veh ACY1 (11761880_at) / RFU 11764098_at / Fold change /veh 11764098_at / RFU SAMD14 (11745864_x_at) / Fold change /veh SAMD14 (11745864_x_at) / RFU NPB (11741838_a_at) / Fold change /veh NPB (11741838_a_at) / RFU TMPRSS6 (11731388_a_at) / Fold change /veh TMPRSS6 (11731388_a_at) / RFU KRTAP10-2 (11738614_at) / Fold change /veh KRTAP10-2 (11738614_at) / RFU ARHGAP8 /// PRR5-ARHGAP8 (11727945_x_at) / Fold change /veh ARHGAP8 /// PRR5-ARHGAP8 (11727945_x_at) / RFU KRTAP5-7 /// NADSYN1 (11734609_at) / Fold change /veh KRTAP5-7 /// NADSYN1 (11734609_at) / RFU RASL12 (11751679_a_at) / Fold change /veh RASL12 (11751679_a_at) / RFU CDKN2B (11736163_a_at) / Fold change /veh CDKN2B (11736163_a_at) / RFU PRF1 (11729649_at) / Fold change /veh PRF1 (11729649_at) / RFU, ZNF638 /// ZNF638-IT1 / Fold change vs veh, ZNF638 /// ZNF638-IT1 / RFU, PANK3 / Fold change vs veh, PANK3 / RFU, SH3YL1 / Fold change vs veh, SH3YL1 / RFU, ZEB2 / Fold change vs veh, ZEB2 / RFU, NRIP1 / Fold change vs veh, NRIP1 / RFU, PTTG1IP / Fold change vs veh, PTTG1IP / RFU, CAPN2 / Fold change vs veh, CAPN2 / RFU, MED14 / Fold change vs veh, MED14 / RFU, SNORA58 / Fold change vs veh, SNORA58 / RFU, C1orf63 / Fold change vs veh, C1orf63 / RFU, LRRFIP1 / Fold change vs veh, LRRFIP1 / RFU, NDUFAF7 / Fold change vs veh, NDUFAF7 / RFU, SLC12A2 / Fold change vs veh, SLC12A2 / RFU, IBTK / Fold change vs veh, IBTK / RFU, ESF1 / Fold change vs veh, ESF1 / Fold change vs veh, TMEM50B / RFU, TAOK1 / Fold change vs veh, TAOK1 / RFU, ACBD3 / Fold change vs veh, ACBD3 / RFU, TMA16 / Fold change vs veh, TMA16 / RFU, RWDD3 / Fold change vs veh, RWDD3 / RFU, BCAT1 / Fold change vs veh, BCAT1 / RFU, EDEM3 / Fold change vs veh, EDEM3 / RFU, TMEM33 / Fold change vs veh, TMEM33 / RFU, WDR75 / Fold change vs veh, WDR75 / RFU, AHCTF1 / Fold change vs veh, AHCTF1 / RFU, TFRC / Fold change vs veh, TFRC / RFU, ZDHHC17 / Fold change vs veh, ZDHHC17 / RFU, NOM1 / Fold change vs veh, NOM1 / RFU, ARL8B / Fold change vs veh, ARL8B / RFU, ZBTB11 / Fold change vs veh, ZBTB11 / RFU, TAMM41 / Fold change vs veh, TAMM41 / RFU, KIAA1704 /// LOC100996395 / Fold change vs veh, KIAA1704 /// LOC100996395 / RFU, ING1 / Fold change vs veh, ING1 / RFU, TRMT61B / Fold change vs veh, TRMT61B / RFU, FUBP3 / Fold change vs veh, FUBP3 / RFU, TP53 / Fold change vs veh, TP53 / RFU, TNKS2 / Fold change vs veh, TNKS2 / RFU, ZFP14 / Fold change vs veh, ZFP14 / RFU, ACTR2 / Fold change vs veh, ACTR2 / RFU, PPP3R1 / Fold change vs veh, PPP3R1 / RFU, PIK3R1 / Fold change vs veh, PIK3R1 / RFU, HNRNPA1 / Fold change vs veh, HNRNPA1 / RFU, RNF170 / Fold change vs veh, RNF170 / RFU, ZNF28 / Fold change vs veh, ZNF28 / RFU, RNGTT / Fold change vs veh, RNGTT / RFU, OGT / Fold change vs veh, OGT / RFU, BRD1 / Fold change vs veh, BRD1 / RFU, MARS / Fold change vs veh, MARS / RFU, ZNF655 / Fold change vs veh, ZNF655 / RFU, FAHD1 / Fold change vs veh, FAHD1 / RFU, BDP1 / Fold change vs veh, BDP1 / RFU, LRRCC1 / Fold change vs veh, LRRCC1 / RFU, ARID1A / Fold change vs veh, ARID1A / RFU, ZNF146 / Fold change vs veh, ZNF146 / RFU, ZNF330 / Fold change vs veh, ZNF330 / RFU, GPN3 / Fold change vs veh, GPN3 / RFU, C9orf123 / Fold change vs veh, C9orf123 / RFU, N4BP2L2 / Fold change vs veh, N4BP2L2 / RFU, ARFIP1 / Fold change vs veh, ARFIP1 / RFU, FAM179B / Fold change vs veh, FAM179B / RFU, BCL10 / Fold change vs veh, BCL10 / RFU, UHRF1BP1L / Fold change vs veh, UHRF1BP1L / RFU, BET1 / Fold change vs veh, BET1 / RFU, CNOT2 / Fold change vs veh, CNOT2 / RFU, ZNF268 / Fold change vs veh, ZNF268 / Fold change vs veh, ZNF507 / RFU, DGCR2 / Fold change vs veh, DGCR2 / RFU, WDSUB1 / Fold change vs veh, WDSUB1 / Fold change vs veh, HSP90B1 /// MIR3652 / RFU, ADSS / Fold change vs veh, ADSS / RFU, GK / Fold change vs veh, GK / RFU, ZNF148 / Fold change vs veh, ZNF148 / RFU, TAF9 / Fold change vs veh, TAF9 / RFU, SLC1A5 / Fold change vs veh, SLC1A5 / RFU, SLMO2 / Fold change vs veh, SLMO2 / RFU, ABCC4 / Fold change vs veh, ABCC4 / RFU, LOC101060439 /// RAP1B / Fold change vs veh, LOC101060439 /// RAP1B / RFU, RFX7 / Fold change vs veh, RFX7 / RFU, GTPBP10 / Fold change vs veh, GTPBP10 / RFU, CNEP1R1 / Fold change vs veh, CNEP1R1 / RFU, BIVM-ERCC5 /// ERCC5 / Fold change vs veh, BIVM-ERCC5 /// ERCC5 / RFU, ILF3 / Fold change vs veh, ILF3 / RFU 11762660_at / Fold change /veh 11762660_at / RFU VCAN (11757783_s_at) / Fold change /veh VCAN (11757783_s_at) / RFU DDX43 (11728927_at) / Fold change /veh DDX43 (11728927_at) / RFU KRT8 (11758188_x_at) / Fold change /veh KRT8 (11758188_x_at) / RFU NKD1 (11759106_at) / Fold change /veh NKD1 (11759106_at) / RFU SRD5A1 (11742802_a_at) / Fold change /veh SRD5A1 (11742802_a_at) / RFU TPSAB1 /// TPSB2 (11721975_s_at) / Fold change /veh TPSAB1 /// TPSB2 (11721975_s_at) / RFU GSTM3 (11746129_a_at) / Fold change /veh GSTM3 (11746129_a_at) / RFU IL23R (11737362_x_at) / Fold change /veh IL23R (11737362_x_at) / RFU TMEM51 (11727254_a_at) / Fold change /veh TMEM51 (11727254_a_at) / RFU PIWIL2 (11732686_x_at) / Fold change /veh PIWIL2 (11732686_x_at) / RFU ORM1 (11744905_x_at) / Fold change /veh ORM1 (11744905_x_at) / RFU CCDC152 (11743942_at) / Fold change /veh CCDC152 (11743942_at) / RFU ECM1 (11717891_a_at) / Fold change /veh ECM1 (11717891_a_at) / RFU IL23R (11748794_a_at) / Fold change /veh IL23R (11748794_a_at) / RFU TNFAIP8L3 (11732012_x_at) / Fold change /veh TNFAIP8L3 (11732012_x_at) / RFU MBOAT4 (11741988_at) / Fold change /veh MBOAT4 (11741988_at) / RFU 11764193_at / Fold change /veh 11764193_at / RFU TMEM53 (11763286_at) / Fold change /veh TMEM53 (11763286_at) / RFU MAGEB2 (11727129_at) / Fold change /veh MAGEB2 (11727129_at) / RFU TMEM200A (11744735_a_at) / Fold change /veh TMEM200A (11744735_a_at) / RFU CCDC152 (11751479_a_at) / Fold change /veh CCDC152 (11751479_a_at) / RFU FAM211A (11726209_a_at) / Fold change /veh FAM211A (11726209_a_at) / RFU RGS16 (11746705_a_at) / Fold change /veh RGS16 (11746705_a_at) / RFU VCAN (11755009_s_at) / Fold change /veh VCAN (11755009_s_at) / RFU RHOB (11743442_s_at) / Fold change /veh RHOB (11743442_s_at) / RFU RGS16 (11720943_a_at) / Fold change /veh RGS16 (11720943_a_at) / RFU RGS16 (11720944_at) / Fold change /veh RGS16 (11720944_at) / RFU, VPS4B / Fold change vs veh, VPS4B / RFU, CREB1 / Fold change vs veh, CREB1 / RFU, DNAJC13 / Fold change vs veh, DNAJC13 / RFU, GNAQ / Fold change vs veh, GNAQ / RFU, CDK5R1 / Fold change vs veh, CDK5R1 / RFU, ZRANB3 / Fold change vs veh, ZRANB3 / RFU, CUL4A / Fold change vs veh, CUL4A / RFU, CCNY / Fold change vs veh, CCNY / RFU, UFL1 / Fold change vs veh, UFL1 / RFU, COG3 / Fold change vs veh, COG3 / RFU, DIAPH2 / Fold change vs veh, DIAPH2 / RFU, SKA2 / Fold change vs veh, SKA2 / RFU, AFF3 / Fold change vs veh, AFF3 / RFU, LMF1 / Fold change vs veh, LMF1 / RFU, IPO11 / Fold change vs veh, IPO11 / RFU, DFFB / Fold change vs veh, DFFB / RFU, FOXP1 / Fold change vs veh, FOXP1 / RFU, CARD8 / Fold change vs veh, CARD8 / RFU, STRN3 / Fold change vs veh, STRN3 / RFU, ADK / Fold change vs veh, ADK / RFU, RASSF2 / Fold change vs veh, RASSF2 / RFU, WIPF1 / Fold change vs veh, WIPF1 / RFU, LARP1B / Fold change vs veh, LARP1B / RFU, RASA1 / Fold change vs veh, RASA1 / RFU, RB1 / Fold change vs veh, RB1 / RFU, PPFIA1 / Fold change vs veh, PPFIA1 / RFU, MAT2A / Fold change vs veh, MAT2A / RFU, CCT5 / Fold change vs veh, CCT5 / RFU, WDR92 / Fold change vs veh, WDR92 / RFU, CUX1 / Fold change vs veh, CUX1 / RFU, TTC7A / Fold change vs veh, TTC7A / RFU, TMEM135 / Fold change vs veh, TMEM135 / RFU, DEPTOR / Fold change vs veh, DEPTOR / RFU, CPM / Fold change vs veh, CPM / RFU, DNAJB6 / Fold change vs veh, DNAJB6 / RFU, CACNA2D3 / Fold change vs veh, CACNA2D3 / RFU, DTX4 / Fold change vs veh, DTX4 / RFU, TFCP2 / Fold change vs veh, TFCP2 / RFU, GMCL1 /// GMCL1P1 / Fold change vs veh, GMCL1 /// GMCL1P1 / RFU, AEBP2 / Fold change vs veh, AEBP2 / RFU, SNHG1 /// SNORD22 /// SNORD25 /// SNORD26 /// SNORD27 /// SNORD28 /// SNORD29 /// SNORD31 / Fold change vs veh, SNHG1 /// SNORD22 /// SNORD25 /// SNORD26 /// SNORD27 /// SNORD28 /// SNORD29 /// SNORD31 / Fold change (Aza/veh), C12orf56 (ProbeSet 11735607_a_at) / Fold change (ACY-1035/veh), C12orf56 (ProbeSet 11735607_a_at) / Fold change (Aza/veh), FGFR1OP (ProbeSet 11751329_s_at) / Fold change (ACY-1035/veh), FGFR1OP (ProbeSet 11751329_s_at) / Fold change (Aza/veh), VPS36 (ProbeSet 11739960_a_at) / Fold change (ACY-1035/veh), VPS36 (ProbeSet 11739960_a_at) / RFU SYPL1 (11715823_x_at) / Fold change /veh SYPL1 (11715823_x_at) / RFU IGFBP7 (11715501_s_at) / Fold change /veh IGFBP7 (11715501_s_at) / RFU REEP3 (11722064_at) / Fold change /veh REEP3 (11722064_at) / RFU IGLL1 (11728026_x_at) / Fold change /veh IGLL1 (11728026_x_at): dose or concentration left out as unconfirmed
Conditions: MV-4-11 cells, 48 hours

Nc1ncn([C@@H]2O[C@H](CO)[C@@H](O)[C@H]2O)c(=O)n1 [azacitidine]
RFU LINC00158 (11744669_a_at): 7.44 RFU
